Consider 5 compounds from US20260258048A1, “LACTAM-CONTAINING IMIDAZOPYRIDAZINE IL-17 INHIBITOR COMPOUNDS” (Janssen Pharmaceutica NV, priority 2023, published 2026).

Test [1] has as its system IL-17A-induced G-CSF production in human normal keratinocyte (NHK). The test can be described thus: NHK assay: IL-17A-induced G-CSF production in normal human keratinocytes. It is filed as cell-based. The note with it: Homo sapiens, Keratinocyte, 24 h, IL-17A 5 ng/mL. In short, it runs like this:
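Adult keratinocytes at 3000-4000 cells/well; recombinant human IL-17A pre-incubated 1 h at rt with titrated compound, then added to cells (final 5 ng/mL IL-17A, 0.2% DMSO, 5% FBS) for 24 h at 37 °C. Supernatant G-CSF quantified by HTRF against a standard curve to give IC50; viability checked by CellTiter-Glo versus DMSO.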

Test [2] has as its target IL-17A(FLAG-tagged): IL-17RA(His-tagged) (Homo sapiens, UniProt Q16552, K93Q). The test can be described thus: IL-17A(FLAG-tagged): IL-17RA(His-tagged) binding disruption Eu-HTRF assay. Put shortly: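 Compound (22-point, 2-fold series) was pre-incubated 1 h at rt with FLAG-IL-17A, added as a 2× solution (1 μM). A 2× mix of C-terminal 10×His IL-17RA, Eu-anti-FLAG donor and D2-anti-His acceptor in PBS/0.01% Triton X-100/200 mM KF was then added for 2 h at rt. The 665/615 nm ratio was fitted to one-site competition for IC50.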
A general note: TR-FRET usually uses a lanthanide donor and a delayed reading to cut background.

Where [3] appears, read: class of the average IC50 where tested more than once.

pIC50: −log10 of the molar value.

As usually defined, the pIC50 is −log10 of the IC50, conventionally taken in molar units. A lower pIC50 goes with a high IC50.

UniProt Q16552, sequence (Q16552 with tags, fused parts or gaps K93Q): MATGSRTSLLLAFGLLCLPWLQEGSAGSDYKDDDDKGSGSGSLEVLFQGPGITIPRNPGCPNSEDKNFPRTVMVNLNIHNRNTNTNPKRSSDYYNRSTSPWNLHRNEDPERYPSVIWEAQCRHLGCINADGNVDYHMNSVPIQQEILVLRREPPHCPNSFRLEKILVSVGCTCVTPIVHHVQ

Consider `O=C(N[C@H](c1cn2ncc(C[C@@H]3C[C@@H](C(F)(F)F)NC3=O)cc2n1)C1CCC(F)(F)CC1)c1nonc1C1CC1` [Example 60, 4-Cyclopropyl-N—[(S)-(4,4-difluorocyclohexyl)-[7-[[(3R,5S)-2-oxo-5-(trifluoromethyl)pyrrolidin-3-yl]methyl]imidazo[1,2-b]pyridazin-2-yl]methyl]-1,2,5-oxadiazole-3-carboxamide], for which the pIC50 is below 5.40 in test [1] (setting [3]); below 5.40 in test [1] (value in brackets, Table 4); 5.40 to 6.40 in test [2] (setting [3]); 5.94 in test [2] (value in brackets, Table 4).
Consider `O=C(N[C@H](c1cn2ncc(C(O)C3CC(C(F)(F)F)NC3=O)cc2n1)C1CCC(F)(F)CC1)c1nonc1C1CC1` (stereo partly drawn) [Example 61, 4-Cyclopropyl-N—[(S)-(4,4-difluorocyclohexyl)-[7-[hydroxy-[2-oxo-5-(trifluoromethyl)pyrrolidin-3-yl]methyl]imidazo[1,2-b]pyridazin-2-yl]methyl]-1,2,5-oxadiazole-3-carboxamide], for which the pIC50 in test [1] (setting [3]) is above 6.40; in test [2] (setting [3]) it was 5.40 to 6.40.
Regarding `O=C(N[C@H](c1cn2ncc(CC3CC4(CC4)NC3=O)cc2n1)C1CCC(F)(F)CC1)c1nonc1C1CC1` (stereo partly drawn) [Example 62, 4-Cyclopropyl-N-((1S)-(4,4-difluorocyclohexyl)(7-((5-oxo-4-azaspiro[2.4]heptan-6-yl)methyl)imidazo[1,2-b]pyridazin-2-yl)methyl)-1,2,5-oxadiazole-3-carboxamide], the pIC50 in test [1] (setting [3]) was below 5.40; in test [2] (setting [3]), 5.40 to 6.40.
On the same counts, the results for `O=C(N[C@H](c1cn2ncc([C@@H](O)[C@H]3C[C@@H](C(F)(F)F)NC3=O)cc2n1)C1CCC(F)(F)CC1)c1nonc1C1CC1` [Example 74] are above 6.40 and above 6.40.
The matching figures for `O=C(N[C@H](c1cn2ncc(CC3CC4(COC4)NC3=O)cc2n1)C1CCC(F)(F)CC1)c1nonc1C1CC1` (stereo partly drawn) [Example 98, 4-Cyclopropyl-N-((1S)-(4,4-difluorocyclohexyl)(7-((6-oxo-2-oxa-5-azaspiro[3.4]octan-7-yl)methyl)imidazo[1,2-b]pyridazin-2-yl)methyl)-1,2,5-oxadiazole-3-carboxamide]: below 5.40 and below 5.40.
